# From patent US20240150302A1, “6-METHYLURACIL DERIVATIVES WITH ANTICHOLINESTERASE ACTIVITY AND THEIR USE” (priority 2021, published 2024)
# Tests used:
# [1] = tested on: transgenic mice of the B6C3-Tg(APP695)85Dbo Tg(PSENI)85Dbo genotype; conditions: 5 mg/kg daily intraperitoneal, RU patent No. 2565756; cited from earlier work
# mice of the CD-1 line [2] = assay: General toxic effect (LD50) in mice; conditions: for LD50 (in mice, i.p.): intraperitoneal; for LD50 (in mice, p.o.): oral; for Times less toxic than donepezil hydrochloride, oral: ratio of LD50, administered orally; for Times less toxic than donepezil hydrochloride, intraperitoneal / Times less toxic than the free base: ratio of LD50, intraperitoneal
# Method: Ed. A. N. Mironova] on mice of the CD-1 line (“Puschino” Nursery, Moscow Region), both males and females, weighing 19.0±2.0 g, kept on a standard diet in the day/night lighting regimen (12 hours) at 22° C.
# [3] = Solubility in water and organic solvents; type: physicochemical
# mice of the CD-1 line [4] = conditions: in mice, i.p.; prior-art free base; cited from earlier work
# [5] = tested on: transgenic mice with genotype B6C3-Tg(APP695)85Dbo Tg(PSENI)85Dbo; assay: "Rewarded alternation" test in a T-maze, genetic model of Alzheimer's disease; type: in vivo; conditions: administered orally, compared with healthy animals
# Excerpt: At the beginning of the research, the age of the transgenic mice was 9 months.
# At the beginning of the research, the age of the transgenic mice was 8 months.
# [6] = tested on: transgenic mice of the B6C3-Tg(APP695)85Dbo Tg(PSENI)85Dbo genotype; assay: Number of amyloid plaques in the cortex, Thioflavin S staining of brain sections; type: in vivo; conditions: administered orally
# Method: The line was purchased at The Jackson Laboratory (USA) and kept in the “Pushchino” nursery for laboratory animals Pushchino, Moscow Region). At the beginning of the research, the age of the transgenic mice was 9 months.
# (§1) An equivalent amount of water (Water (Tg+)) was orally administered to control groups of transgenic mice.
# Amyloid-beta deposits were evaluated after sacrifice on mouse brain sections (20 μm) using the Thioflavin S fluorescent dye and the Olympus BX51W1 fluorescence microscope, by the method described in the article [http://library.med.utah.edu/WebPath/histhtml/manuals/manuals.html].
# The line was purchased at The Jackson Laboratory (USA) and kept in the “Pushchino” nursery for laboratory animals Pushchino, Moscow Region). At the beginning of the research, the age of the transgenic mice was 8 months.
# as §1
Structure (SMILES),Reduction of the number of amyloid deposits in the cerebral cortex [1] [%],"LD50 (in mice, i.p.) (mice of the CD-1 line [2]) [mg/kg]",Solubility [3],LD50 (background statement) (mice of the CD-1 line [4]) [mg/kg],Correction of memory impairment [5],"LD50 (in mice, p.o.) (mice of the CD-1 line [2]) [mg/kg]","Times less toxic than donepezil hydrochloride, oral (mice of the CD-1 line [2]) [times]","Times less toxic than donepezil hydrochloride, intraperitoneal (mice of the CD-1 line [2]) [times]",Times less toxic than the free base (mice of the CD-1 line [2]) [times],Effect on the number of amyloid plaques in the cortex [6]
"CCN(CCCCCn1c(C)cc(=O)n(CCCCCN(CC)Cc2ccccc2[N+](=O)[O-])c1=O)Cc1ccccc1[N+](=O)[O-] [1,3-bis[5-(ortho-nitrobenzyl-ethylamino)pentyl-1]-6-methyluracil, reference compound]",50,51,insoluble in water,51.48,–,–,–,–,–,–
"Br.Br.CCN(CCCCCn1c(C)cc(=O)n(CCCCCN(CC)Cc2ccccc2[N+](=O)[O-])c1=O)Cc1ccccc1[N+](=O)[O-] [Compound (1), 1,3-bis[5-(ortho-nitrobenzylethylamino)pentyl]-6-methyluracil dihydrobromide]",–,199,"soluble in chloroform, dimethylformamide, dimethyl sulfoxide, ethyl alcohol, and water",–,effective for correction of memory impairment,520,12,40,~4,more effective product for prevention of the formation of amyloid plaque than donepezil hydrochloride
"CCN(CCCCCn1c(C)cc(=O)n(CCCCCN(CC)Cc2ccccc2[N+](=O)[O-])c1=O)Cc1ccccc1[N+](=O)[O-].Cl.Cl [Compound (2), 1,3-bis[5-(ortho-nitrobenzylethylamino)pentyl]-6-methyluracil dihydrochloride]",–,150,"soluble in dimethylformamide, dimethyl sulfoxide, ethyl alcohol, and water",–,effective for correcting memory impairment,290,6,30,~3,more effective than donepezil hydrochloride for preventing the formation of amyloid plaques
